The values below come from paper PMC7668297 (Journal of medicinal chemistry, 2020).

For one data set, the system named is A549 cells. The experiment in a line: cells. The settings on record: Homo sapiens, A549, 72 h, read-out: Cell proliferation IC50 ± SD.
A further data set relates to A375 cells. In words: cells. The settings on record: Homo sapiens, A-375, 72 h, read-out: Cell proliferation IC50 ± SD.
For another data set, the system named is MCF7 cells. The experiment in a line: cells. Conditions: Homo sapiens, MCF7, 72 h, read-out: Cell proliferation IC50 ± SD.
The test system of another data set is HeLa cells. The experiment in a line: cells. Conditions: Homo sapiens, 72 h, read-out: Cell proliferation IC50 ± SD.
The test system of a further data set is G-361 cells. In words: cells. The settings on record: Homo sapiens, G-361, 72 h, read-out: Cell proliferation IC50 ± SD.
The subject of the next data set is set of 47 proteins. In words: Off-target safety profiling. Conditions: tested at 2 µM.
For data set [1] the following is noted: mouse, in vivo, ip, 10 mg/kg.
The next data set deals with human topoIIβ (Homo sapiens, UniProt Q02880). The experiment in a line: DNA relaxation catalyzed by human topoIIβ. In kind it is biochemical.
For the next data set, the system named is relaxed pBR322 DNA. The experiment in a line: DNA intercalation. In kind it is binding. Conditions: 0-25 µM compound.
For data set [2], the target named is T1, human topoIIα (Homo sapiens, UniProt P11388). In words: DNA relaxation catalyzed by human topoIIα. In kind it is biochemical. Conditions: ratio of DNA relaxation IC50 values.
Another data set deals with hERG channel (Homo sapiens, UniProt Q12809). In words: Off-target safety profiling, hERG channel. The settings on record: tested at 2 µM. A general note: hERG is a cardiac potassium channel; its block is linked to QT prolongation.
In data set [3] the target is T1, human topoIIα. In words: ATP hydrolysis. Format: biochemical. Conditions: 0-25 µM compound.
Data set [4] deals with T1, human topoIIα. The experiment in a line: DNA cleavage assay. In kind it is biochemical. The settings on record: 0-200 µM compound.
In data set [5] the test system is H2AX phosphorylation in HeLa cells. In words: Immunodetection of H2AX phosphorylation. In kind it is cell-based, human. Conditions: 90 minutes, at IC50 concentration.

Molecules are shown by their SMILES. Entries after “also recorded” stand apart in the source; their conditions may differ.

For the compound `N[C@H]1CCc2nc(-c3ccncc3)nc(Nc3cccc(F)c3)c2C1` [Compound 3, (6R)-N4-(3-fluorophenyl)-2-(4-pyridyl)-5,6,7,8-tetrahydroquinazoline-4,6-diamine], the IC50 with A549 cells was 23.3 ± 2.3 µM; with A375 cells, 10.7 ± 0.1 µM; in the data set with MCF7 cells, 14.2 ± 2.5 µM; with HeLa cells it was 17.1 ± 3.2 µM.

`COc1cc([C@@H]2c3cc4c(cc3[C@@H](O[C@@H]3O[C@@H]5CO[C@@H](C)O[C@H]5[C@H](O)[C@H]3O)[C@H]3COC(=O)[C@H]23)OCO4)cc(OC)c1O` [Etoposide, etoposide, reference compound]: the IC50 in the data set on G-361 cells is 3.8 ± 3 µM; in the data set on A549 cells, 2.4 ± 2 µM; with A375 cells, 0.5 ± 0.1 µM; in the data set with MCF7 cells it was 8.9 ± 1.6 µM.

As to `N[C@@H]1CCc2nc(-c3ccncc3)nc(Nc3cccc(F)c3)c2C1` [Compound 4, (6S)-N4-(3-fluorophenyl)-2-(4-pyridyl)-5,6,7,8-tetrahydroquinazoline-4,6-diamine], the IC50 with G-361 cells is 1.8 ± 0.6 µM; in the data set with A549 cells, 17.8 ± 0.6 µM; in the data set with A375 cells, 10.8 ± 0.1 µM; with MCF7 cells it was 16.2 ± 2.6 µM; with HeLa cells, 21.8 ± 4.6 µM.

For `NC1CCc2nc(-c3ccncc3)nc(Nc3ccc(F)cc3)c2C1` (stereo not shown) [Compound 10, N4-(4-fluorophenyl)-2-(4-pyridyl)-5,6,7,8-tetrahydroquinazoline-4,6-diamine], the IC50 in the data set on G-361 cells turned out to be 3 ± 0.7 µM; in the data set on A549 cells it was 22.9 ± 6.5 µM; in the data set with A375 cells, 12.3 ± 1.8 µM; in the data set on MCF7 cells, 16 ± 0.5 µM; in the data set with HeLa cells it was 20.8 ± 4.5 µM.

In the case of `COc1cccc(Nc2nc(-c3ccncc3)nc3c2CC(N)CC3)c1` (stereo not shown) [Compound 11, N4-(3-methoxyphenyl)-2-(4-pyridyl)-5,6,7,8-tetrahydroquinazoline-4,6-diamine], the IC50 amounted to 6.6 ± 3.1 µM in the data set on G-361 cells; 18 ± 0.1 µM in the data set with A549 cells; 15.1 ± 4.8 µM with A375 cells; 15.8 ± 1.4 µM with MCF7 cells; 17.2 ± 2.6 µM in the data set with HeLa cells.

As for `NC1CCc2nc(-c3ccncc3)nc(Nc3cccc(F)c3)c2C1` (stereo not shown) [Compound 1, N4-(3-fluorophenyl)-2-(4-pyridyl)-5,6,7,8-tetrahydroquinazoline-4,6-diamine], the IC50 was found to be 1.4 ± 0.4 µM in the data set with G-361 cells; 19.4 ± 1.8 µM in the data set with A549 cells; 9.9 ± 0.1 µM in the data set on A375 cells; 13.9 ± 2.3 µM in the data set with MCF7 cells; 17 ± 1.9 µM in the data set on HeLa cells.

As for `CN(C)c1ccc(Nc2nc(-c3ccncc3)nc3c2CC(N)CC3)cc1` (stereo not shown) [Compound 14, N4-[4-(dimethylamino)phenyl]-2-(4-pyridyl)-5,6,7,8-tetrahydroquinazoline-4,6-diamine], the “off-target activity (agonist and antagonist) on 47 proteins” value in the data set on set of 47 proteins is given as “no noteworthy activity”. Moreover, the brain penetration result in data set [1] is listed as “able to reach the brain”. The IC50 against human topoIIβ was approximately 100 µM; in the data set on G-361 cells it was 8.1 ± 2.9 µM; in the data set on A549 cells it was 17.1 ± 8.7 µM; in the data set with A375 cells, 12.6 ± 0.7 µM; in the data set with MCF7 cells, 15.8 ± 1.3 µM; in the data set on HeLa cells it was 38.2 ± 9.1 µM. Besides, the DNA intercalation result with relaxed pBR322 DNA was “did not show this behavior; also recorded: does not intercalate into DNA”. The “specificity for topoIIα over topoIIβ” value on human topoIIα [2] is listed as ~ 50 fold. For the same compound, the “activity vs the hERG channel” value on hERG channel is reported as “no noteworthy activity”. Further, the “inhibition of topoIIα-catalyzed ATP hydrolysis” value at human topoIIα [3] (in the absence of DNA) was “none”; at human topoIIα [3] (in the presence of DNA) it was “little ability to inhibit”. Moreover, on human topoIIα [4], the “ability to increase enzyme-mediated DNA cleavage” value is “no ability to increase levels of enzyme-mediated DNA cleavage”. Also, the “phosphorylation of H2AX (reporter of DNA damage)” value in data set [5] is given as “did not induce the phosphorylation of H2AX”.
